Results: the supplement of paper PMC6965134
± gives the standard deviation of the averaged measurements.

Test: TIMS collisional cross section (CCS, N2) of the lipid ion; higher = larger ion cross section
Conditions: ionization mode: positive, one isomer drawn

Row | SMILES | TIMS collisional cross section (sample type: HeLa) | TIMS collisional cross section (sample type: Liver) | TIMS collisional cross section (sample type: plasma)
1 | CCCCCCCC/C=C\CCCCCCCC(=O)OC[C@@H](O)COP(=O)(O)OCCN [LPE 18:1] (ion (formula + adduct): [C23H46NO7P+H] 1+) | 216.4 Å² | 217 ± 2 Å² | 216.93 ± 1.3 Å²
2 | CCCCC/C=C\C/C=C\CCCCCCCC(=O)O[C@H](CO)COP(=O)(O)OCCN [LPE 18:2] (ion (formula + adduct): [C23H44NO7P+H] 1+) | – | – | 211.2 ± 0.85 Å²
3 | CCCCC/C=C\C/C=C\CCCCCCCC(=O)OC[C@@H](O)COP(=O)(O)OCCN [LPE 18:2] (ion (formula + adduct): [C23H44NO7P+H] 1+) | – | 211.45 ± 1.1 Å² | 214.1 Å²
4 | CCCCC/C=C\C/C=C\C/C=C\CCCCC(=O)OC[C@@H](O)COP(=O)(O)OCCN [LPE 18:3] (ion (formula + adduct): [C23H42NO7P+H] 1+) | – | – | 208.3 Å²
5 | CCCCCCCCCCCCCCCCCCCC(=O)OC[C@@H](O)COP(=O)(O)OCCN [LPE 20:0] (ion (formula + adduct): [C25H52NO7P+H] 1+) | 229.2 Å² | – | –
6 | CCCCCCCC/C=C\CCCCCCCCCC(=O)OC[C@@H](O)COP(=O)(O)OCCN [LPE 20:1] (ion (formula + adduct): [C25H50NO7P+H] 1+) | – | 223.5 Å² | 223.3 Å²
7 | CCCCC/C=C\C/C=C\C/C=C\CCCCCCC(=O)OC[C@@H](O)COP(=O)(O)OCCN [LPE 20:3] (ion (formula + adduct): [C25H46NO7P+H] 1+) | 216.8 Å² | 217.2 Å² | 217.3 Å²
8 | CCCCC/C=C\C/C=C\C/C=C\C/C=C\CCCC(=O)O[C@H](CO)COP(=O)(O)OCCN [LPE 20:4] (ion (formula + adduct): [C25H44NO7P+H] 1+) | – | – | 214.45 ± 0.92 Å²
9 | CC/C=C\C/C=C\C/C=C\C/C=C\C/C=C\CCCC(=O)OC[C@@H](O)COP(=O)(O)OCCN [LPE 20:5] (ion (formula + adduct): [C25H42NO7P+H] 1+) | – | – | 210.7 Å²
10 | CCCCCCCCCCCCCCCCCCCCCC(=O)OC[C@@H](O)COP(=O)(O)OCCN [LPE 22:0] (ion (formula + adduct): [C27H56NO7P+H] 1+) | 236.4 Å² | – | –
11 | CCCCC/C=C\C/C=C\C/C=C\C/C=C\CCCCCC(=O)O[C@H](CO)COP(=O)(O)OCCN [LPE 22:4] (ion (formula + adduct): [C27H48NO7P+H] 1+) | – | 223.9 Å² | –
12 | CCCCC/C=C\C/C=C\C/C=C\C/C=C\CCCCCC(=O)OC[C@@H](O)COP(=O)(O)OCCN [LPE 22:4] (ion (formula + adduct): [C27H48NO7P+H] 1+) | 223.8 Å² | – | 223.6 Å²
13 | CCCCC/C=C\C/C=C\C/C=C\C/C=C\C/C=C\CCC(=O)OC[C@@H](O)COP(=O)(O)OCCN [LPE 22:5] (ion (formula + adduct): [C27H46NO7P+H] 1+) | 220.9 Å² | 221 Å² | 220.3 ± 1.4 Å²
14 | CC/C=C\C/C=C\C/C=C\C/C=C\C/C=C\C/C=C\CCC(=O)O[C@H](CO)COP(=O)(O)OCCN [LPE 22:6] (ion (formula + adduct): [C27H44NO7P+H] 1+) | – | – | 217.7 Å²
15 | CC/C=C\C/C=C\C/C=C\C/C=C\C/C=C\C/C=C\CCC(=O)OC[C@@H](O)COP(=O)(O)OCCN [LPE 22:6] (ion (formula + adduct): [C27H44NO7P+H] 1+) | 218.95 ± 0.071 Å² | 218 Å² | 218.3 ± 0.85 Å²
16 | CCCCC/C=C\C/C=C\CCCCCCCCCC(=O)OC[C@@H](O)COP(=O)(O)OC[C@@H](O)CO [LPG 20:2] (ion (formula + adduct): [C26H49O9P+H] 1+) | – | 230.1 Å² | –
17 | CCCCCCCCCCCCCCCCCC(=O)OC[C@@H](O)COP(=O)(O)O[C@H]1C(O)C(O)C(O)[C@@H](O)C1O (stereo not given in full) [LPI 18:0] (ion (formula + adduct): [C27H53O12P+H] 1+) | 248.8 Å² | 249.1 Å² | 248.8 Å²
18 | CCCCC/C=C\C/C=C\CCCCCCCC(=O)OC[C@@H](O)COP(=O)(O)O[C@H]1C(O)C(O)C(O)[C@@H](O)C1O (stereo not given in full) [LPI 18:2_0:0] (ion (formula + adduct): [C27H49O12P+H] 1+) | – | – | 243 Å²
19 | CCCCCCCCCCCCCCCCCC(=O)OC[C@@H](O)COP(=O)(O)OC[C@H](N)C(=O)O [LPS 18:0] (ion (formula + adduct): [C24H48NO9P+H] 1+) | 229.2 Å² | 229.2 Å² | –

Row | SMILES | TIMS collisional cross section (sample type: HeLa) | TIMS collisional cross section (sample type: Liver) | TIMS collisional cross section (sample type: plasma)
20 | CCCCC/C=C\C/C=C\C/C=C\C/C=C\CCCC(=O)OC[C@@H](O)COP(=O)(O)OC[C@H](N)C(=O)O [LPS 20:4] (ion (formula + adduct): [C26H44NO9P+H] 1+) | – | 221.9 Å² | –
21 | OC[C@]([H])(OC(CCC/C=C\C/C=C\C/C=C\C/C=C\CCCCC)=O)CO [MG 0:0_20:4_0:0] (ion (formula + adduct): [C23H38O4+H] 1+) | – | 195.7 Å² | 197.1 Å²
22 | CCCCC/C=C\C[C@H](O)/C=C/C=C\C/C=C\CCCC(=O)O[C@H](COC(=O)CCCCCCCCCCCCCCC)COP(=O)([O-])OCC[N+](C)(C)C [Oxidized PC 16:0@_20:4] (ion (formula + adduct): [C44H80NO9P+H] 1+) | – | – | 289.9 ± 0.36 Å²
23 | CCCCCCCCCCCCCCCC(=O)OC[C@H](COP(=O)([O-])OCC[N+](C)(C)C)OC(=O)CCCC=O [Oxidized PC 16:0_5:0@] (ion (formula + adduct): [C29H56NO9P+H] 1+) | – | 245.3 Å² | 245.55 ± 0.35 Å²
24 | CCCCCCCCCCCCCCCC(=O)OC[C@H](COP(=O)([O-])OCC[N+](C)(C)C)OC(=O)CCCCCCCC=O [Oxidized PC 16:0_9:0@] (ion (formula + adduct): [C33H64NO9P+H] 1+) | 257.85 ± 1.6 Å² | – | 257 ± 0.14 Å²
25 | CCCCC/C=C\C[C@H](O)/C=C/C=C\C/C=C\CCCC(=O)O[C@H](COC(=O)CCCCCCCCCCCCCCC)COP(=O)([O-])OCC[N+](C)(C)C [Oxidized PC 16:0_20:4@] (ion (formula + adduct): [C44H80NO9P+H] 1+) | – | 290.3 Å² | –
26 | CCCCC/C=C\C[C@H](O)/C=C/C=C\C/C=C\CCCC(=O)O[C@H](COC(=O)CCCCCCCCCCCCCCCCC)COP(=O)([O-])OCC[N+](C)(C)C [Oxidized PC 18:0@_20:4] (ion (formula + adduct): [C46H84NO9P+H] 1+) | – | – | 297.15 ± 0.92 Å²
27 | CCCCC/C=C\C[C@H](O)/C=C/C=C\C/C=C\CCCC(=O)O[C@H](COC(=O)CCCCCCCCCCCCCCCCC)COP(=O)([O-])OCC[N+](C)(C)C [Oxidized PC 18:0_20:4] (ion (formula + adduct): [C46H84NO9P+H] 1+) | – | – | 296.7 Å²
28 | CCCCCCCCCCCCCCCCCC(=O)O[C@H](COC(=O)CCCCCCC)COP(=O)([O-])OCC[N+](C)(C)C [PC 8:0_18:0@] (ion (formula + adduct): [C34H68NO8P+H] 1+) | – | 265.4 Å² | –
29 | CCCCCCCCCCCCCC(=O)O[C@H](COC(=O)CCCCCCCCCCC)COP(=O)([O-])OCC[N+](C)(C)C [PC 12:0@_14:0] (ion (formula + adduct): [C34H68NO8P+H] 1+) | 266.9 Å² | – | –
30 | CCCCCCCCCCCCCCC(=O)O[C@H](COC(=O)CCCCCCCCCCC)COP(=O)([O-])OCC[N+](C)(C)C [PC 12:0_15:0@] (ion (formula + adduct): [C35H70NO8P+H] 1+) | – | – | 269.3 Å²
31 | CCCCCCCCCCCCCCC(=O)O[C@H](COC(=O)CCCCCCCCCCCCC)COP(=O)([O-])OCC[N+](C)(C)C [PC 14:0@_15:0] (ion (formula + adduct): [C37H74NO8P+H] 1+) | 276.1 Å² | – | –
32 | CCCCCCCCCCCCCCCC(=O)O[C@H](COC(=O)CCCCCCCCCCCCC)COP(=O)([O-])OCC[N+](C)(C)C [PC 14:0@_16:0] (ion (formula + adduct): [C38H76NO8P+H] 1+) | 279.2 Å² | – | –
33 | CC/C=C\C/C=C\C/C=C\CCCCCCCC(=O)O[C@H](COC(=O)CCCCCCCCCCCCC)COP(=O)([O-])OCC[N+](C)(C)C [PC 14:0@_18:3] (ion (formula + adduct): [C40H74NO8P+H] 1+) | – | 277.5 Å² | –
34 | CC/C=C\C/C=C\C/C=C\C/C=C\CCCCC(=O)O[C@H](COC(=O)CCCCCCCCCCCCC)COP(=O)([O-])OCC[N+](C)(C)C [PC 14:0@_18:4] (ion (formula + adduct): [C40H72NO8P+H] 1+) | 278.8 Å² | – | –
35 | CCCCC/C=C\C/C=C\C/C=C\C/C=C\CCCC(=O)O[C@H](COC(=O)CCCCCCCCCCCCC)COP(=O)([O-])OCC[N+](C)(C)C [PC 14:0@_20:4] (ion (formula + adduct): [C42H76NO8P+H] 1+) | – | – | 282 Å²
36 | CC/C=C\C/C=C\C/C=C\C/C=C\C/C=C\C/C=C\CCC(=O)O[C@H](COC(=O)CCCCCCCCCCCCC)COP(=O)([O-])OCC[N+](C)(C)C [PC 14:0@_22:6] (ion (formula + adduct): [C44H76NO8P+H] 1+) | – | – | 284.8 Å²
37 | CCCCCCCCCCCCCCC(=O)O[C@H](COC(=O)CCCCCCCCCCCCC)COP(=O)([O-])OCC[N+](C)(C)C [PC 14:0_15:0] (ion (formula + adduct): [C37H74NO8P+H] 1+) | 276.3 Å² | – | –
38 | CCCCCCCCCCCCCCCC(=O)O[C@H](COC(=O)CCCCCCCCCCCCC)COP(=O)([O-])OCC[N+](C)(C)C [PC 14:0_16:0] (ion (formula + adduct): [C38H76NO8P+H] 1+) | 280.6 Å² | – | –
